# System: E. coli MG1655
# Experiment: Monatin excretion with 2.5 mM sodium decanoate, E. coli MG1655 strains with pUC19, marA or baeR (30, 72 h)
# Assay type: cell-based, Escherichia coli
# Description: The strain used for the experiment was E. coli MG1655: : aspC/proA/pProNde together with the marA gene from E. coli cloned into the pUC19 vector (GenBank/EMBL accession number L09137). The control strain was E. coli MG1655: : aspC/proA/pProNde along with the pUC19 vector. The marA gene was amplified from E. coli W3110 with PCR technology (known to one skilled in the art) using the primers E. coli MarASalIF-5′[…]3′ (SEQ ID NO. 24) and E. coli MarABamHIR-5′[…]3′ (SEQ ID NO. 25). For inoculum, the E. coli strains were grown overnight at 37° C. and 250 rpm in Luria-Bertani (“LB”) medium with 100 μg/mL ampicillin and 50 μg/mL kanamycin.
# For the experimental treatments, Trp-1+glucose medium, a minimal medium that has been used for increased production of tryptophan in E. coli cells (Zeman, et al. Folia Microbiol. 35:200-204, (1990)), was prepared as follows. To 800 mL nanopure water the following reagents were added: 2 g (NH4)2SO4 and 13.6 g KH2PO4. The pH was adjusted to 7.0, the volume was increased to 948 mL, and the medium was autoclaved. Following sterilization, 0.2 g MgSO4.7H2O, 0.01 g CaCl2.2H2O, and 0.5 mg FeSO4.7H2O were added to the medium in a 1.8 mL volume followed by addition of 0.2 mL of Neidhardt's micronutrient solution. Neidhardt F. C., et al., “Culture medium for Enterobacteria,” J. Bacteriol. 119:736-746, (1974). Neidhardt's medium includes (per liter): 0.18 g (NH4)6(MO7)24.4H2O, 1.24 g H3BO3, 0.36 g CoCl2.6H2O, 0.12 g CuSO4 (anhydrous), 0.8 g MnCl2.4H2O, and 0.14 g ZnSO4.7H2O. A 50% glucose solution was prepared separately and sterile-filtered. Forty mL of glucose solution and 10 mL of 1 M 3-Morpholinopropanesulfonic acid (“MOPS”) buffer were added to the base medium (950 mL) for a 1 L final volume.
# Conditions for the treatments included 250 rpm agitation throughout and 37° C. up to induction, then, 30° C. following induction. At an OD600 nm between 0.35-0.50, induction of the plasmid genes was initiated. At induction, 1.0 mM IPTG, 0.5% L-arabinose, 0.5 mM pyridoxine hydrochloride, and 0.2 mLs of Balch's vitamins were added. Additions of 10 g/L L-tryptophan, 10 g/L sodium pyruvate, 0.04 mM pyridoxal-5′-phosphate (“PLP”) and 0.2% Tween® 20 (polyoxyethylene 20-sorbitan monolaurate) were made 3.0 hours following induction. At 24 hours after inoculation, 10 g/L of sodium pyruvate was added to each flask again. Some treatments included 2.5 mM sodium decanoate addition at 3.0 hours following induction.
# The strains used for the experiment were E. coli. MG1655 : : aspC/proA/pProNde in combination with either baeR or no insert in the pUC19 vector. The baeR gene was amplified from E. coli W3110 by using primers, E. coli baeRSalIF 5′[…]3′ (SEQ ID NO. 26) and E. coli baeRBamHIR 5′[…]3′ (SEQ ID NO. 27), which introduced SalI and BamHI sites at the end of the amplified fragment. The PCR fragment was cloned between the SalI and BamHI sites of the vector pUC19 (GenBank/EMBL accession number L09137). For inoculum, the E. coli strains were grown overnight at 37° C. and 250 rpm in Luria-Bertani (“LB”) medium with 100 μg/mL ampicillin and 50 μg/mL kanamycin.
# For the experimental treatments, Trp-1+glucose medium, a minimal medium that has been used for increased production of tryptophan in E. coli cells (Zeman et al. Folia Microbiol. 35:200-204, (1990)), was prepared as follows. To 800 mL nanopure water the following reagents were added: 2 g (NE4)2SO4 and 13.6 g KH2PO4. The pH was adjusted to 7.0, the volume was increased to 948 mL, and the medium was autoclaved. Following sterilization, 0.2 g MgSO4.7H2O, 0.01 g CaCl2.2H2O, and 0.5 mg FeSO4.7H2O were a to the medium in a 1.8 mL volume followed by addition of 0.2 mL of Neidhardt's micronutrient solution. Neidhardt F. C., et al., “Culture medium for Enterobacteria,” J. Bacteriol. 119:736-746 (1974). Neidhardt's medium includes (per liter): 0.18 g (NH4)6(MO7)24.4H2l O, 1.24 g H3BO3, 0.36 g CoCl2.6H2O, 0.12 g CuSO4 (anhydrous), 0.8 g MnCl2.4H2O, and 0.14 g ZnSO4.7H2O. […]
# [1] = E. coli MG1655 AspC ProA pProNde del BaeR pUC19, n = 2
# [2] = E. coli MG1655 AspC ProA pProNde del MarA pUC19, n = 2
# [3] = E. coli MG1655 aspC proA pProNde del pUC19 (control), n = 2
smiles,measurement,setting,value
CCCCCCCCCC(=O)[O-].[Na+] [sodium decanoate],"Mean monatin per dry cell weight, 30 hours",[1],16.2 mg/g
same,"Mean monatin per dry cell weight, 72 hours",[1],66.8 mg/g
same,"Mean monatin per dry cell weight, 30 hours",[2],8.5 mg/g
same,"Mean monatin per dry cell weight, 72 hours",[2],51.9 mg/g
same,"Mean monatin per dry cell weight, 30 hours",[3],2.4 mg/g
same,"Mean monatin per dry cell weight, 72 hours",[3],2.7 mg/g

# From US8158389B2, “Products and methods for in vivo secretion of monatin” (priority 2005, dated 2012)
